Source: PubChem BioAssay AID1745844 (Carcinogenic Potency Database (CPDB), 2022)
Active and inactive are the calls of the source. No rule for the calls is given here.

System: rodent lifetime carcinogenesis bioassay, tumor incidence TD50
Experiment: carcinogenic potency in animals, long-term in vivo studies, CPDB compilation (AID 1745844)

With `Nc1ncn([C@@H]2O[C@H](CO)[C@@H](O)[C@H]2O)c(=O)n1` the TD50 (mouse, strain B6C3F1, females, i.p., site: all sites + multiple organs, lesion: lymphoma + granulocytic leukemia + granulocytic sarcoma, dosed 52 weeks, study length 81 weeks) was 0.256 mg/kg/day, the TD50 (mouse, strain B6C3F1, females, i.p., site: all sites, lesion: lymphoma, dosed 52 weeks, study length 81 weeks) was 0.615 mg/kg/day and the TD50 (mouse, strain B6C3F1, females, i.p., site: any site (literature study), lesion: several types, types named in the paper, dosed 52 weeks, study length 81 weeks) was 0.219 mg/kg/day. The TD50 (mouse, strain B6C3F1, females, i.p., site: multiple organs, lesion: granulocytic leukemia + granulocytic sarcoma, dosed 52 weeks, study length 81 weeks) was 0.52 mg/kg/day, the TD50 (mouse, strain B6C3F1, males, i.p., site: any site (literature study), lesion: several types, types named in the paper, dosed 52 weeks, study length 81 weeks) was 1.05 mg/kg/day and the TD50 (mouse, strain B6C3F1, males, i.p., site: liver, lesion: hepatocellular adenoma + hepatocellular carcinoma + neoplastic nodule, dosed 52 weeks, study length 81 weeks) was 15.7 mg/kg/day. For the same compound, the TD50 (mouse, strain B6C3F1, males, i.p., site: lung, lesion: alveolar/bronchiolar adenoma + alveolar/bronchiolar carcinoma, dosed 52 weeks, study length 81 weeks) was 61.4 mg/kg/day, the TD50 (mouse, strain BALB/c, females, i.p., site: any site (literature study), lesion: one or several types, types not named, dosed 50 weeks, study length 72 weeks) was 0.0364 mg/kg/day and the TD50 (mouse, strain BALB/c, females, i.p., site: lymphoreticular system, lesion: several types, types named in the paper, dosed 50 weeks, study length 72 weeks) was 0.0569 mg/kg/day. It also gave a TD50 (mouse, strain BALB/c, females, i.p., site: mammary gland, lesion: adenocarcinoma, type B, dosed 50 weeks, study length 72 weeks) of 0.618 mg/kg/day, a TD50 (mouse, strain BALB/c, females, i.p., site: mammary gland, lesion: several types, types named in the paper, dosed 50 weeks, study length 72 weeks) of 0.432 mg/kg/day and a TD50 (mouse, strain BALB/c, females, i.p., site: skin, lesion: several types, types named in the paper, dosed 50 weeks, study length 72 weeks) of 0.499 mg/kg/day. For the same compound, the TD50 (mouse, strain BALB/c, males, i.p., site: any site (literature study), lesion: one or several types, types not named, dosed 50 weeks, study length 67 weeks) was 0.0539 mg/kg/day, the TD50 (mouse, strain BALB/c, males, i.p., site: liver, lesion: hepatocellular adenoma, dosed 50 weeks, study length 67 weeks) was 1.49 mg/kg/day and the TD50 (mouse, strain BALB/c, males, i.p., site: lung, lesion: adenoma, dosed 50 weeks, study length 67 weeks) was 0.121 mg/kg/day. The TD50 (mouse, strain BALB/c, males, i.p., site: lymphoreticular system, lesion: several types, types named in the paper, dosed 50 weeks, study length 67 weeks) was 0.285 mg/kg/day, the TD50 (mouse, strain BALB/c, males, i.p., site: skin, lesion: several types, types named in the paper, dosed 50 weeks, study length 67 weeks) was 0.98 mg/kg/day and the TD50 (rat, strain Fischer 344, males, i.p., site: any site (literature study), lesion: one or several types, types not named, dosed 52 weeks, study length 52 weeks) was 0.17 mg/kg/day. For the same compound, the TD50 (rat, strain Fischer 344, males, i.p., site: testis, lesion: one or several types, types not named, dosed 52 weeks, study length 52 weeks) was 0.222 mg/kg/day, the TD50 (rat, strain Sprague-Dawley, females, i.p., site: any site (literature study), lesion: several types, types named in the paper, dosed 34 weeks, study length 80 weeks) was 0.487 mg/kg/day and the TD50 (rat, strain Sprague-Dawley, males, i.p., site: any site (literature study), lesion: several types, types named in the paper, dosed 34 weeks, study length 80 weeks) was 0.328 mg/kg/day.
For `[O]=[Nb](=[O])[OH]`, the carcinogen call (mouse, strain Charles River CD1, both sexes, in drinking water, site: any site (literature study), lesion: malignant tumor, dosed 135 weeks, study length 135 weeks) was “negative (inactive)”, the carcinogen call (mouse, strain Charles River CD1, both sexes, in drinking water, site: any site (literature study), lesion: one or several types, types not named, dosed 135 weeks, study length 135 weeks) was “negative (inactive)” and the carcinogen call (mouse, strain Charles River CD1, both sexes, in drinking water, site: liver, lesion: one or several types, types not named, dosed 135 weeks, study length 135 weeks) was “negative (inactive)”. The carcinogen call (mouse, strain Charles River CD1, both sexes, in drinking water, site: lung, lesion: one or several types, types not named, dosed 135 weeks, study length 135 weeks) was “negative (inactive)”.
Compound `CCN(N=O)C(N)=O` has a TD50 (rat, strain F344/DuCrj, females, in drinking water, site: all sites, lesion: mononuclear-cell leukemia, dosed 103 weeks, study length 111 weeks) of 0.151 mg/kg/day, a TD50 (rat, strain F344/DuCrj, females, in drinking water, site: any site (literature study), lesion: several types, types named in the paper, dosed 103 weeks, study length 111 weeks) of 0.0687 mg/kg/day and a TD50 (rat, strain F344/DuCrj, females, in drinking water, site: brain, lesion: several types, types named in the paper, dosed 103 weeks, study length 111 weeks) of 0.904 mg/kg/day. The TD50 (rat, strain F344/DuCrj, females, in drinking water, site: digestive tract, lesion: several types, types named in the paper, dosed 103 weeks, study length 111 weeks) was 2.56 mg/kg/day, the TD50 (rat, strain F344/DuCrj, females, in drinking water, site: duodenum, lesion: several types, types named in the paper, dosed 103 weeks, study length 111 weeks) was 7.68 mg/kg/day and the TD50 (rat, strain F344/DuCrj, females, in drinking water, site: mammary gland, lesion: adenocarcinoma, dosed 103 weeks, study length 111 weeks) was 2.54 mg/kg/day. It also gave a TD50 (rat, strain F344/DuCrj, females, in drinking water, site: thyroid follicle, lesion: papillary adenoma, dosed 103 weeks, study length 111 weeks) of 8.7 mg/kg/day, a TD50 (rat, strain F344/DuCrj, females, in drinking water, site: uterus, endometrium, lesion: sarcoma, dosed 103 weeks, study length 111 weeks) of 2.56 mg/kg/day and a TD50 (rat, strain F344/DuCrj, females, in drinking water, site: uterus, lesion: adenoma, dosed 103 weeks, study length 111 weeks) of 4.08 mg/kg/day. It also gave a TD50 (rat, strain F344/DuCrj, females, in drinking water, site: uterus, lesion: endometrial stromal polyp, dosed 103 weeks, study length 111 weeks) of 0.883 mg/kg/day, a TD50 (rat, strain F344/DuCrj, males, in drinking water, site: any site (literature study), lesion: several types, types named in the paper, dosed 99 weeks, study length 111 weeks) of 0.025 mg/kg/day and a TD50 (rat, strain F344/DuCrj, males, in drinking water, site: brain, lesion: several types, types named in the paper, dosed 99 weeks, study length 111 weeks) of 0.997 mg/kg/day. For the same compound, the TD50 (rat, strain F344/DuCrj, males, in drinking water, site: digestive tract, lesion: several types, types named in the paper, dosed 99 weeks, study length 111 weeks) was 1.15 mg/kg/day, the TD50 (rat, strain F344/DuCrj, males, in drinking water, site: duodenum, lesion: several types, types named in the paper, dosed 99 weeks, study length 111 weeks) was 31.2 mg/kg/day and the TD50 (rat, strain F344/DuCrj, males, in drinking water, site: liver, lesion: neoplastic nodule, dosed 99 weeks, study length 111 weeks) was 16.4 mg/kg/day. The TD50 (rat, strain F344/DuCrj, males, in drinking water, site: lung, lesion: adenocarcinoma, dosed 99 weeks, study length 111 weeks) was 2 mg/kg/day, the TD50 (rat, strain F344/DuCrj, males, in drinking water, site: lung, lesion: adenoma, dosed 99 weeks, study length 111 weeks) was 0.518 mg/kg/day and the TD50 (rat, strain F344/DuCrj, males, in drinking water, site: mammary gland, lesion: fibroma, dosed 99 weeks, study length 111 weeks) was 0.889 mg/kg/day. The TD50 (rat, strain F344/DuCrj, males, in drinking water, site: peripheral nervous system, lesion: several types, types named in the paper, dosed 99 weeks, study length 111 weeks) was 10.2 mg/kg/day, the TD50 (rat, strain F344/DuCrj, males, in drinking water, site: peritoneum, lesion: mesothelioma, dosed 99 weeks, study length 111 weeks) was 0.109 mg/kg/day and the TD50 (rat, strain F344/DuCrj, males, in drinking water, site: subcutaneous tissue, lesion: fibroma, dosed 99 weeks, study length 111 weeks) was 2.42 mg/kg/day. For the same compound, the TD50 (rat, strain F344/DuCrj, males, in drinking water, site: thyroid follicle, lesion: papillary adenocarcinoma, dosed 99 weeks, study length 111 weeks) was 8.53 mg/kg/day and the TD50 (rat, strain F344/DuCrj, males, in drinking water, site: thyroid follicle, lesion: papillary adenoma, dosed 99 weeks, study length 111 weeks) was 3.9 mg/kg/day.
For `C[C@]12CCC(=O)C=C1CC[C@@H]1[C@@H]2[C@@H](O)C[C@@]2(C)[C@H]1CC[C@]2(O)C(=O)CO`, the carcinogen call (rat, strain Sprague-Dawley, females, by gavage, site: any site (literature study), lesion: malignant tumor, dosed 110 weeks, study length 110 weeks) was “negative (inactive)” and the carcinogen call (rat, strain Sprague-Dawley, males, by gavage, site: any site (literature study), lesion: malignant tumor, dosed 104 weeks, study length 104 weeks) was “negative (inactive)”.
Work on `O=NN(CCCC(F)(F)F)CCCC(F)(F)F` yielded a TD50 (rat, strain Sprague-Dawley, females, by gavage, site: any site (literature study), lesion: malignant tumor, dosed 32 weeks, study length 101 weeks) of 0.291 mg/kg/day, a TD50 (rat, strain Sprague-Dawley, females, by gavage, site: liver, lesion: hepatocellular carcinoma, dosed 32 weeks, study length 101 weeks) of 0.707 mg/kg/day and a TD50 (rat, strain Sprague-Dawley, females, by gavage, site: lung, lesion: several types, types named in the paper, dosed 32 weeks, study length 101 weeks) of 1.12 mg/kg/day. For the same compound, the TD50 (rat, strain Sprague-Dawley, males, by gavage, site: any site (literature study), lesion: malignant tumor, dosed 32 weeks, study length 101 weeks) was 0.363 mg/kg/day, the TD50 (rat, strain Sprague-Dawley, males, by gavage, site: liver, lesion: hepatocellular carcinoma, dosed 32 weeks, study length 101 weeks) was 0.793 mg/kg/day and the TD50 (rat, strain Sprague-Dawley, males, by gavage, site: lung, lesion: several types, types named in the paper, dosed 32 weeks, study length 101 weeks) was 0.793 mg/kg/day.
For `Nc1ccc(Cc2ccc(N)c(Cl)c2)cc1Cl`, the TD50 (mouse, strain CD-1 HaM/ICR, females, in feed, site: any site (literature study), lesion: several types, types named in the paper, dosed 77 weeks, study length 90 weeks) was 52.8 mg/kg/day, the TD50 (mouse, strain CD-1 HaM/ICR, females, in feed, site: liver, lesion: hepatoma, dosed 77 weeks, study length 90 weeks) was 66.6 mg/kg/day and the TD50 (mouse, strain CD-1 HaM/ICR, females, in feed, site: liver, lesion: several types, types named in the paper, dosed 77 weeks, study length 90 weeks) was 66.6 mg/kg/day. The TD50 (mouse, strain CD-1 HaM/ICR, females, in feed, site: lung, lesion: several types, types named in the paper, dosed 77 weeks, study length 90 weeks) was 556 mg/kg/day (inactive), the TD50 (mouse, strain CD-1 HaM/ICR, males, in feed, site: any site (literature study), lesion: several types, types named in the paper, dosed 77 weeks, study length 94 weeks) was 97.9 mg/kg/day and the TD50 (mouse, strain CD-1 HaM/ICR, males, in feed, site: liver, lesion: several types, types named in the paper, dosed 77 weeks, study length 94 weeks) was 471 mg/kg/day. The TD50 (mouse, strain CD-1 HaM/ICR, males, in feed, site: lung, lesion: several types, types named in the paper, dosed 77 weeks, study length 94 weeks) was 342 mg/kg/day (inactive), the TD50 (rat, strain Charles River CD (Sprague-Dawley), males, in feed, site: any site (literature study), lesion: several types, types named in the paper, dosed 77 weeks, study length 98 weeks) was 33.4 mg/kg/day and the TD50 (rat, strain Charles River CD (Sprague-Dawley), males, in feed, site: liver, lesion: several types, types named in the paper, dosed 77 weeks, study length 98 weeks) was 70.1 mg/kg/day.
